“And” between values parts separate entries of the source, which are not always exact repeats. Equal entries are not always repeated. “Also recorded” adds a separate entry of the source.
Experiments:
[1] = system: LPS-stimulated peritoneal macrophages; assay: RT-PCR of proinflammatory factors in LPS-stimulated peritoneal macrophages; type: cell-based, mouse; conditions: LPS 10 ng/ml
Experimental: Lipopolysaccharide (LPS) was used to stimulate the cultured peritoneal macrophages for the cellular inflammation model.
(§1) Peritoneal macrophages were isolated from peritoneum by lavage using 20 ml Dulbecco's modified Eagle’s medium (DMEM) and seeded into six-well plates using […] in DMEM of 10% fetal bovine serum (FBS). Non-adherent cells were removed 6 h later, whereas adherent cells were refed with DMEM of 10% FBS and allowed to recover overnight. […] Cells were harvested for subsequent analysis.
Total RNA was extracted from the whole-cell lysates using the Trnzol-A^+ reagent (Tiangen, Cat. no. DP421, China). Reverse transcription was performed using TIANScript RT Kit (Tiangen, Cat. no. KR104-02, China). All real-time PCR reactions were carried out on ABI ViiA 7 Real-Time System (Life Technologies, USA) using TransStart Top Green qPCR SuperMix (Transgen, Cat. no. AQ131-03, China). The formula 2^−ΔΔCt was used to calculate the relative expression. The expression of the housekeeping gene GAPDH was used as an internal control.

COX-1 [2] = biological target: T1, COX-1 (Mus musculus, UniProt P22437); assay: COX selective inhibition assay on tissue extracts (COX fluorescent activity, distinguished with SC-560/Dup-697): COX-1; type: biochemical; conditions: mouse peritoneal macrophage lysates
T1 construct: the tissue extracts from the mouse kidney and the peritoneal macrophages; from tissue; host or cells: mouse kidney and thioglycollate-elicited peritoneal macrophages (C57BL/6J), homogenate supernatant
T1 sequence (P22437 27-602): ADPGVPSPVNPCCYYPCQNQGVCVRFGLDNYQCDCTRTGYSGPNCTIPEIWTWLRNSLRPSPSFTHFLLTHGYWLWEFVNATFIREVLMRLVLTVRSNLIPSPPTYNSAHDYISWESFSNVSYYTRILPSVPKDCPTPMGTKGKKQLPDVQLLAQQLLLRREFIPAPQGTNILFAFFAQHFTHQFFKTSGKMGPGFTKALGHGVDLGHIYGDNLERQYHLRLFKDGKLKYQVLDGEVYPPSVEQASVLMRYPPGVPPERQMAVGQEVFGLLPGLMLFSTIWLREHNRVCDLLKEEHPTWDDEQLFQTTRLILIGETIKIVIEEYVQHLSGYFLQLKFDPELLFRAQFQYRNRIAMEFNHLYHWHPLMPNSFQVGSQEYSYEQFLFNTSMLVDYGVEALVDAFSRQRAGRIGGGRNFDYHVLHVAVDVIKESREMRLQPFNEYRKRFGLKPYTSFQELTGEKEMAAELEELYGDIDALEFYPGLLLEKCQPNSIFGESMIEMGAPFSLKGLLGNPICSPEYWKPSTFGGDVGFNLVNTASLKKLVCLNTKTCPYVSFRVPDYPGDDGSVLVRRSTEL
Experimental: (§2) Next, the tissue extracts from the mouse kidney and the peritoneal macrophages were used for COX selective inhibition assays. […] To further evaluate the selectivity of these predicted drugs on COX-1 and COX-2, we also used the human recombinant enzyme assays to measure the levels of PGE 2 under COX-1 and COX-2 catalyzes, respectively.
as §1
(§3) Following stimulation, kidneys were harvested from mice, and macrophages from the above treatment were homogenized in 5 ml of cold phosphate-buffered saline (PBS) containing protease inhibitors and centrifuged at 10,000×g for 15 min at 4 °C. The supernatant was assayed by the COX fluorescent activity assay kit according to the manufacturer’s instructions.

COX-2 [3] = biological target: T2, COX-2 (Homo sapiens, UniProt P35354); conditions: compounds at their IC50 concentrations, 2 h
T2 sequence (P35354 18-604): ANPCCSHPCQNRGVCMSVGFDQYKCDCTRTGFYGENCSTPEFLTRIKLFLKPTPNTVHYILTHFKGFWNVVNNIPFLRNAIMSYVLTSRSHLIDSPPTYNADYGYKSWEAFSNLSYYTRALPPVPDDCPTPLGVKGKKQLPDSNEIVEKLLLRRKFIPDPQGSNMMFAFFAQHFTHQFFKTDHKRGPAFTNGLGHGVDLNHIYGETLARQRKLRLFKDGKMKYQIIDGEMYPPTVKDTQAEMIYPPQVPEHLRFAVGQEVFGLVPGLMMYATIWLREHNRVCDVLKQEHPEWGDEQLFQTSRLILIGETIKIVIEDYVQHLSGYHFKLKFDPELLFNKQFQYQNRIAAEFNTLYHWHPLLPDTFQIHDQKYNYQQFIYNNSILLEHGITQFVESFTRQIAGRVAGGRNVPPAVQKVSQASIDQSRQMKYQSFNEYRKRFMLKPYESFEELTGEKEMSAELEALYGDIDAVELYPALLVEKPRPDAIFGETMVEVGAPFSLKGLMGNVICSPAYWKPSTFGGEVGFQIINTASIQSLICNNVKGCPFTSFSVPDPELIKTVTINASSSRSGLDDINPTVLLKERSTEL

COX-2 [4] = biological target: T3, COX-2 (Mus musculus, UniProt Q05769); assay: COX selective inhibition assay on tissue extracts (COX fluorescent activity, distinguished with SC-560/Dup-697): COX-2; type: biochemical; conditions: mouse peritoneal macrophage lysates
T3 construct: the tissue extracts from the mouse kidney and the peritoneal macrophages; from tissue; host or cells: mouse kidney and thioglycollate-elicited peritoneal macrophages (C57BL/6J), homogenate supernatant
T3 sequence (Q05769 18-604): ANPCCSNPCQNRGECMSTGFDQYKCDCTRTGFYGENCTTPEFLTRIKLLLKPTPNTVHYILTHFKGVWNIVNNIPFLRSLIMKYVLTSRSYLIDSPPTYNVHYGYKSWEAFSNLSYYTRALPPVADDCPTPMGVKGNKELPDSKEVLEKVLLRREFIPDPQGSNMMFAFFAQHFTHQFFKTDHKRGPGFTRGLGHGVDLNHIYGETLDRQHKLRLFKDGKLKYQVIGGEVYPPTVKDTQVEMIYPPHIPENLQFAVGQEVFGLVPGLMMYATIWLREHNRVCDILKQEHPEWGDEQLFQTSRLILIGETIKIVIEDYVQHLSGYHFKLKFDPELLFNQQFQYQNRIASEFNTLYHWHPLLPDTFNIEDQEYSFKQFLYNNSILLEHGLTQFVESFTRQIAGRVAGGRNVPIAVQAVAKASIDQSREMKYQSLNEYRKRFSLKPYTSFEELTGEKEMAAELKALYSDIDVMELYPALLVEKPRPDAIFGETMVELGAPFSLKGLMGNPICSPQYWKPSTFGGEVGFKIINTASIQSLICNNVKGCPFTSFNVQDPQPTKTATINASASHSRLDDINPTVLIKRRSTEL
Experimental: as §2, §1, §3

COX = COX fluorescent activity assay on mouse kidney lysates; type: biochemical
Experimental: We further sought to experimentally validate the bioactivities of the COX inhibitors predicted by DTINet (Methods). First, we tested their inhibitory potencies on the mouse kidney lysates using the COX fluorescent activity assays.
as §3

COX-2 [5] = biological target: T2, COX-2; assay: Human recombinant enzyme assay (PGE2 by ELISA): COX-2; type: biochemical; conditions: PGE2 levels, 10 μM arachidonic acid
Experimental: as §2
(§4) Then the 10 μM arachidonic acid was added to start the reaction and allowed the process to proceed for 10 min. The reaction was terminated by diluting the reaction into buffer containing 25 μM indomethacin. The final levels of PGE 2 were measured by ELISA.

alpha2-containing GlyRs = system: alpha2-containing GlyRs; design: method as in Thio et al., 2003; conditions: embryonic mouse hippocampal neurons, low-affinity binding manner, ref Thio et al., 2003; cited from earlier work
recombinant human COX-1 = recombinant human COX-1 (Homo sapiens, UniProt P23219); assay: Human recombinant enzyme assay (PGE2 by ELISA): COX-1; type: biochemical; conditions: PGE2 levels, 10 μM arachidonic acid
Experimental: as §2, §4

[6] = system: GABA B-subtype (GABA-B) receptors; design: method as in ref 27 (Wu et al., 2011); conditions: previous studies, ref 27 (Wu et al., 2011); cited from earlier work
[7] = system: GABA A-subtype (GABA-A) receptors; design: method as in ref 28 (Wassef et al., 2003); conditions: previous studies, ref 28 (Wassef et al., 2003); cited from earlier work
GlyRs = system: GlyRs; design: method as in Liu et al., 2009; conditions: rat hippocampal neurons, ref Liu et al., 2009; cited from earlier work
COX-1 [8] = conditions: read-out: IC50 COX-1; common NSAIDs; cited from earlier work
COX-2 [9] = conditions: cited from earlier work

Chain of recombinant human COX-1 (P23219 24-599): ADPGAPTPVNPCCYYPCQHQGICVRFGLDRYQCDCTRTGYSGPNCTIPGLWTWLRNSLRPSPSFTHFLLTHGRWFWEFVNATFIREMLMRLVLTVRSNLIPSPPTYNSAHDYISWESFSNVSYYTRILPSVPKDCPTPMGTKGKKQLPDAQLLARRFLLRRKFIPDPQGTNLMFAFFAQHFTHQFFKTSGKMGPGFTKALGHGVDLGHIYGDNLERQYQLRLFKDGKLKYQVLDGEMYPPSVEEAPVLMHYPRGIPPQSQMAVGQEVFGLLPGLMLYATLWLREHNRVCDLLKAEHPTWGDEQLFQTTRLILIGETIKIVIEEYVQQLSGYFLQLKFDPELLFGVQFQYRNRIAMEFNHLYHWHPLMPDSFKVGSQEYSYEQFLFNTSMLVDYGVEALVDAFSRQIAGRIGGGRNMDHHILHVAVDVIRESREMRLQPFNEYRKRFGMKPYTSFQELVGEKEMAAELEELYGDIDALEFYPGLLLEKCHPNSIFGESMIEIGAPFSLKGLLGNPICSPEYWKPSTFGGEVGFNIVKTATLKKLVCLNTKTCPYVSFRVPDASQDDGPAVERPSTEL

Structure (SMILES)	Relative COX activity inhibition (%) COX-1 (COX-1 [2])	inhibition of the binding of [3H] celecoxib to COX-2 (COX-2 [3])	Relative COX activity inhibition (%) COX-2 (COX-2 [4])	IC50 (COX)	IC50 (COX-2 [5])	further results
NCCCC(O)(P(=O)(O)O)P(=O)(O)O [Alendronate]	57%	~40.67%	43%	160 µM	184 µM	IL-12p35 production induced by LPS (mRNA, RT-PCR) [1]: significantly inhibited
CNC1=Nc2ccc(Cl)cc2C(c2ccccc2)=[N+]([O-])C1 [Chlordiazepoxide]	–	–	–	–	–	effect on alpha2-containing GlyRs (alpha2-containing GlyRs): block
CCCNC(=O)NS(=O)(=O)c1ccc(Cl)cc1 [Chlorpropamide]	37%	~14.00%	63%	290 µM and ~300 µM	152 µM	IC50 (recombinant human COX-1): 224 µM
CN1CCN(C2=Nc3cc(Cl)ccc3Nc3ccccc32)CC1 [Clozapine]	–	–	–	–	–	interaction with GABA-B receptors [6]: direct interaction; effect on GABA-A receptors in the cortex [7]: antagonize; effect on GlyRs (GlyRs): non-competitive antagonist
O=C1CN=C(c2ccccc2)c2cc([N+](=O)[O-])ccc2N1 [Nitrazepam]	–	–	–	–	–	effect on alpha2-containing GlyRs (alpha2-containing GlyRs): block
CCCc1nc2c(C)cc(-c3nc4ccccc4n3C)cc2n1Cc1ccc(-c2ccccc2C(=O)O)cc1 [Telmisartan]	63%	about 48.33%	37%	56.1 µM	91.8 µM	IL-12p35 production induced by LPS (mRNA, RT-PCR) [1]: significantly inhibited; also recorded: much stronger suppression effect; LPS induced expression of IL-6 (mRNA, RT-PCR) [1]: strong inhibitory effect; LPS induced expression of TNF-α (mRNA, RT-PCR) [1]: strong inhibitory effect; induction of IL-1β (mRNA, RT-PCR) [1]: strongest suppression effect; IC50 (recombinant human COX-1): 42 µM
CS(=O)(=O)c1ccc(C2=C(c3ccccc3)C(=O)OC2)cc1 [rofecoxib]	–	–	–	–	–	IC50 (COX-1 [8]): […]; IC50 (COX-2 [9]): 25 µM
